Assay results from patent US12569536B2, “Macrocyclic peptides for targeted inhibition of autophagy” (Board of Regents, The University of Texas System, priority 2019, dated 2026).
Bridge positions count the residues as written; N and C are the ends. Square brackets hold non-standard residues; d marks the D form. Primed or numbered codes have the meaning given here. Ends that are not written are not given here. DSG″ = disuccinimidyl glutarate, a bis-NHS cross-linker that leaves a glutaryl bridge between two amines; NMeA = CN[C@@H](C)C(=O)O

Test system: HeLa cells stably transfected with a GFP-LC3 fusion
Format: cell-based
Details: HeLa starved in Hank's Balanced Salt Solution
Description: FIG. 11: Confocal microscopy of SUPR 4B1W-Rox in autophagic HeLa cells. A line of HeLa cells was stably transfected with a GFP-LC3 fusion. When starved for 2+ hours in Hank's Balanced Salt Solution, these cells become autophagic and GFP signal becomes punctate as GFP-LC3 fusions are embedded in the autophagosome.

SUPR 4B1W-ROX: SUPR 4B1W conjugated to the fluorophore ROX (MWPHRVTA[NMeA]K; bridge N-10 via DSG″; also: conjugated to fluorophore ROX, site not given here)
co-localization with GFP-LC3: Significant co-localization of ROX and GFP signal
